Measurements: paper PMC5618429, “Kempopeptin C, a Novel Marine-Derived Serine Protease Inhibitor Targeting Invasive Breast Cancer” (Marine Drugs, 2017)

Key:
[1] = biological target: T1, trypsin from porcine pancreas (Sus scrofa, UniProt P00761); experiment: Trypsin inhibition assay; assay type: biochemical; conditions: mean ± SD, n = 3; 30-min preincubation; read-out: IC50 against trypsin
T1 construct: purchased Sigma T0303; host or cells: porcine pancreas
Method: The trypsin inhibition assay was carried out at room temperature by incubating 10 µL of trypsin from porcine pancreas (T0303, Sigma, St. Louis, MO, USA) (100 µM prepared in assay buffer) with 39 µL of assay buffer (50 mM Tris-HCl, 100 mM NaCl, 1 mM CaCl2; pH 7.8) in the presence of 1 µL of different concentrations of inhibitors (2 and 3; half log dilutions prepared in DMSO) or the solvent control. After a 30-min incubation time, 50 µL of the 1.5 mM substrate: Nα-benzoyl-DL-arginine-4-nitroanilide (prepared as 2 mM stock solution in DMF and further diluted to 1.5 mM in assay buffer) were added to each well. The reaction was monitored by measuring the absorbance at 405 nm every 30 s for 30 min using SpectraMax M5 plate reader (Molecular Devices, Sunnyvale, CA, USA).

[2] = Cell viability assay (MTT); assay type: cell-based; conditions: human, MDA-MB-231 breast cancer cells; MDA-MB-231, 48 h, all concentrations tested (32 µM to 320 pM)
Method: MDA-MB-231 cells were seeded in 96-well plates (10,000 cells/well). After 24 h of incubation, the cells were treated with different concentrations of kempopeptins B or C (2 or 3) or the solvent control (DMSO). Following 48 h of incubation, cell viability was measured using 3-(4,5-dimethylthiazol-2-yl)-2,5-diphenyltetrazolium bromide according to the manufacturer's instructions (Promega, Madison, WI, USA).
Effect of kempopeptins on the viability of MDA-MB-231 cells
Kempopeptin C Kempopeptin B
Figure S1. Effect of kempopeptins B and C (2) and (3) on the viability of MDA -MB-231 breast cancer cells.

[3] = biological target: T2, 20S proteasome (trypsin-like activity) (Homo sapiens, UniProt Q99436); experiment: Proteasome Glo Trypsin-Like Activity Assay; assay type: biochemical; conditions: 10 and 1 µM, in vitro
T2 construct: purchased Enzo Life Sciences
Method: The inhibition of proteasomes was assessed using the Proteasome Glo Trypsin-Like Activity Assay from Promega according to the manufacturer’s instructions. Briefly, in white 96-well plates, kempopeptin C (3) (10 and 1 µM final concentration) was incubated at room temperature with 0.1 µg 20S proteasome (Enzo Life Sciences, Farmingdale, NY, USA) for 10 min to allow enzyme inhibitor interactions. Following the incubation period, the detection reagent containing Z-LRR-aminoluciferin substrate was added. The plate was gently mixed at 400 rpm for 30 s and then incubated at room temperature for 10 min. The luminescence signal was then measured using the EnVision plate reader (PerkinElmer, Waltham, MA, USA). Epoxomicin was used as a positive control.
Effect of kempopeptin C on the trypsin- like activity of
Kempopeptin C (10 µM) Kempopeptin C (1 µM) Epoxomicin (5 µM)
Figure S2. Effect of kempopeptin C (3) on the proteasome activity in vitro assessed using proteasome Glo trypsin- like
activity assay (Promega).

T1 sequence (P00761 9-231): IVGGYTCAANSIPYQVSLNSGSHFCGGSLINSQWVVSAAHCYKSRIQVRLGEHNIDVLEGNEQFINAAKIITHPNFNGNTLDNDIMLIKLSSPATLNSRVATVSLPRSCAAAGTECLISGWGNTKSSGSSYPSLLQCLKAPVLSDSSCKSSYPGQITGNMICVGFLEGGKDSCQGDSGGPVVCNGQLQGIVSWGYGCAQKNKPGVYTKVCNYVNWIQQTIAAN

CCCC(=O)NC(C(=O)NC1C(=O)NC(CCCCN)C(=O)NC2CCC(O)N(C2=O)C(C(C)CC)C(=O)N(C)C(Cc2ccc(OC)c(Cl)c2)C(=O)NC(C(C)C)C(=O)OC1C)C(C)C (stereo not drawn) [Kempopeptin C, kempopeptin C]
IC50 [1]: 190 ± 50 nM
viability at 48 h [2]: > 90%
Effect on trypsin-like activity of proteasomes [3]: did not inhibit the trypsin-like activity of proteasomes
